Here are results for two molecules from US8980907B2, “Dendrimer conjugates” (The Regents of the University of Michigan, priority 2008, dated 2015).

For one data set, the system named is porcine liver esterase. Briefly: In vitro release of morphine from pro-drug with porcine liver esterase (HPLC). The format is in vitro ADME. Particulars: 20 μM, porcine liver esterase 0.01 U, phosphate buffer pH 7.0, 2 and 16 hours. On the procedure:
[drawing 26] was incubated with porcine liver esterase (Sigma, 0.01 U) in 20 mM phosphate buffer pH 7.0 for 2 and 16 hours. At the end of the time periods the samples were frozen at −20° C. and were thawed prior to loading onto the HPLC column.

The next data set has as its system Male Hartley guinea pigs. The experiment in a line: Randall & Selitto paw pressure analgesia test in guinea pig. The format is in vivo. To be noted: pain threshold at 60, 150, 240 and 360 min after administration. The source says:
Male Hartley guinea pigs (375-475 g) from Elm Hill labs were allowed free access to food and water before being used in the testing of analgesia effects free morphine, morphine complex, and morphine prodrug A complex
The Randall & Selitto test apparatus (Harvard Instruments) is used to measure analgesia and is based on determination of the animal threshold response to pain induced in the paw by the application of a uniformly increasing pressure from a conical tip upon the dorsal surface of the rear paw which rests on a platform. The weight in grams is taken upon withdrawal of the animals paw from the platform with five repeated measurements of pain threshold recorded for each time point (control, 60, 150, 240, and 360 min) after drug administration. Values are normalized to control and the mean±SEM for each time point are recorded. To reduce tissue damage to the animal a weight limit is used for all animals.

The subject of another data set is solid tumors. Particulars: cited from earlier work.

In the case of `CN1CC[C@]23c4c5ccc(OC(=O)CCC(=O)OC(C)(C)C)c4O[C@H]2[C@@H](O)C=C[C@H]3[C@H]1C5` [Pro-drug A], the “release of morphine from pro-drug” value in the data set on porcine liver esterase is given as “sustained release of morphine”. Moreover, the “analgesia / release of morphine in vivo” value in the data set on Male Hartley guinea pigs is given as “sustained release of morphine”.

With `N.N.[Cl][Pt][Cl]` [cisplatin], in the data set on solid tumors, the “in vivo activity in solid tumor models” value is “no effect”.
